Assay results reported in patent US20030113352A1, “Neutralization of stratum corneum to treat hyperkeratotic skin lesions” (The Regents of the University of California, priority 2001, published 2003).
Values belong to the compound of their own block, whether it stands above or below them.

How the values were obtained:
[1] = molecular target: T1, NHE1 antiporter (Homo sapiens, UniProt P19634); assay: Intracellular pH (BCECF) and recovery from acid load in cultured human keratinocytes; format: cell-based
T1 construct: endogenous in cells; host or cells: cultured human keratinocytes (CHK)
Description: Assessment of Intracellular pH: Keratinocytes were plated on glass coverslips and grown in Cascade 154 medium containing 0.07 mM Ca^2+. The coverslips were incubated in 145 μM BCECF-AM ester at room temperature for 5 minutes, then rinsed for 30 minutes in buffer containing either 28 mM HEPES, 136 mM NaCl, 5 mM KCl, 0.07 mM CaCl2 and 10 mM glucose, pH 7.4 or Ringer solution (136 mM NaCl, 5 mM KCl, 0.03 mM Ca2+, 28 mM TES, 14 mM Na HCO3, NaOH to adjust the pH to 7.4, and 10 mM glucose (pH 7.4, 330 mOsm)). BCECF-AM-ester is membrane permeable; once inside cells it is de esterified by endogenous […], trapping flourescently-active, acidic BCECF inside the cells. The BCECF-loaded cells were placed in a superfusion chamber mounted on a inverted microscope (Nikon). The keratinocytes were superfused with one of the two solutions, and baseline intracellular pH was monitored constantly using a ratiometric method (Paradiio et al (1987) Am J. Physiol. 253:C30-6). […] The resultant fluorescence (at 530 nm) from each stimulating wavelength was measured with a CCD camera (Hamamatsu) digitally ratioed, and stored using a software program (Fluor, Universal Imaging Co., West Chester, Pa.). Whereas fluorescence emission at 440 nm excitation remains constant, indicative of dye concentration, emission from 490 nm varies proportionally with changes of intracellular pH. […]

[2] = test system: hairless mice; assay: Barrier recovery (TEWL) after tape-stripping; settings: for barrier recovery after tape-stripping: NHE1 inhibitors, general statement
Description: Permeability Barrier Studies: Normal hairless mice were treated topically twice a daily for three days with BPB (4 mg/mL) or MJ33 (4 mg/mL) both in propylene glycol:ethanol (7:3 v/v) vehicle, or the vehicle alone on an area of 5-6 cm on the backs and flanks as described previously (Mao-Qiang, M., et al., J. Lipid Res. 36:1926-35 (1995)). […] The acidification experiments were performed with 10 mM HEPES-buffer, adjusted to either pH 5.5 or pH 7.4 as follows: One flank of anesthetized mice was immersed on a mesh netting, as described previously (Lee, S. H., et al., J. Clin. Invest. 89:530-8 (1992)). The mice were anesthetized with chloral hydrate (Morton Grove Pharmaceuticals, Morton Grove, Ill., USA). After 3 hours immersion at 37° C., the mice were removed, and the remaining buffer was gently blotted off. After 15 minutes, barrier function was determined by measurement of transepidermal water loss(TEWL) with an electrolytic water analyzer (MEECO®, Warrington, Pa.). […] Individually tested sites were covered with Hilltop Chambers (HtC, nominal volume 200 mL), which were reapplied following each indvidual measurement.
(§2) The stratum corneum was removed by several strippings with adhesive tape (Tesatape, Beiersdorf, Germany) inducing an increase in TEWL levels above baseline (from 2-5 to approximately 10-15 g/m^2/h). Two sites were prepared on each animal, and TEWL and surface pH were measured at 0, 2, 5 and 24 hrs following the stripping and the applications of inhibitors.
Hairless mice were tape stripped to TEWL of 7-9 g/m^2/h. […] Control areas were covered with Hilltop Chambers containing 10 mM HEPES buffer adjusted to pH 7.4 or pH 5.5 as appropriate. TEWL was measured at 0, 2, 5, and 24 hours post tape-strip. The results are reported as percent barrier recovery from the initial induced defect.

[3] = test system: hairless mice; assay: Skin surface pH after topical treatment or buffer exposure; format: in vivo, hairless mice (Skh1/Hr)
Description: (§3) The mice were anesthetized with chloral hydrate (Morton Grove Pharmaceuticals, Morton Grove, Ill., USA). After 3 hours immersion at 37° C., the mice were removed, and the remaining buffer was gently blotted off. After 15 minutes, barrier function was determined by measurement of transepidermal water loss(TEWL) with an electrolytic water analyzer (MEECO®, Warrington, Pa.). Surface pH was measured with a flat, glass surface electrode from Mettler-Toledo (Giessen, Germany), attached to a pH meter (Skin pH Meter PH 900, Courage& Khazaka, Cologne, Germany). Individually tested sites were covered with Hilltop Chambers (HtC, nominal volume 200 mL), which were reapplied following each indvidual measurement.

[4] = test system: hairless mice; assay: Stratum corneum cohesion: protein removed per D-Squame stripping; format: in vivo, hairless mice (Skh1/Hr)
Description: Before stripping the stratum corneum, the skin surface was cleaned with a single ethanol wipe. D-Squame tapes then were placed sequentially to the test areas for about 3 sec each, removed with forceps, and stored in glass scintillation vials at 5° C.
The amount of protein removed per D-Squame was measured, by a modification of the method of Dreher, F., et al., Acta Derm. […] The protein content per stripping was determined with the Bio-Rad protein assay kit. […] Each tape was incubated with 1 M NaOH for 1 hour at 37° C. in an incubator shaker at 80 rpm, and neutralized thereafter with 1 mL of 1 M HCl in the scintillation vials. Subsequently, 0.2 mL of this solution was incubated in 0.6 ml distilled water plus 0.2 mL of the Bio-Rad protein dye for 5 minutes in borosililate tubes. […] An empty D-Squame tape, as well as distilled water incubated with Bio-Rad dye, served as negative controls. The amount of calculated protein was then normalized to skin surface area (μg/cm^2).

[5] = test system: hairless mice; assay: Stratum corneum integrity: TEWL after sequential tape strippings; format: in vivo, hairless mice (Skh1/Hr)
Description: After 15 minutes, barrier function was determined by measurement of transepidermal water loss(TEWL) with an electrolytic water analyzer (MEECO®, Warrington, Pa.). […] Individually tested sites were covered with Hilltop Chambers (HtC, nominal volume 200 mL), which were reapplied following each indvidual measurement.
as §2

[6] = test system: hairless mice; assay: Permeability barrier function by transepidermal water loss (TEWL); format: in vivo, hairless mice (Skh1/Hr)
Description: as §3

[7] = test system: murine skin; settings: 4 mg/mL topical, shown previously; cited from earlier work
[8] = test system: murine skin; assay: Desmosome density and desmoglein-1 staining in lower stratum corneum; format: in vivo, mouse; settings: for density of desmosomes in the lower stratum corneum and at the stratum corneum-stratum granulosum interface: inhibitor-treated vs vehicle sites
Description: (§1) Ultrastructural methods: Freshly obtained biopsies from mouse skin were fixed directly in modified Karnovsky's fixative, postfixed with reduced osmium tetroxide (OSO4) and then imbedded in an Epon-epoxy mixture. For visualization of lipid-enriched, lamellar bilayer structures, some samples were post fixed in ruthenium tetroxide (RuO4). Sections were cut on a Reichert Ultracut E microtome, counterstained with uranyl acetate and lead citrate, and viewed in a Zeiss 10 CR electron microscope, operated at 60 kV.
Immunofluorescence Staining: Hairless mouse skin was excised with a 6 mm punch biopsy, and the subcutaneous fat was removed. Tissue sections were incubated for 1 hour in blocking buffer (1% bovine serum albumin, 0.1% cold water fish gelatin in phosphate buffered saline (PBS)), and were then incubated for 1 hour further at room temperature with 1:500 dilution of polyclonal rabbit anti-mouse desmoglein 1 antibody (gift of Dr. John Stanley, University of Pennsylvania) diluted in blocking buffer. The tissue was then washed with blocking buffer and incubated one hour at room temperature with fluoroscein, isothiocyanate-conjugated, goat anti-rabbit IgG antibody (DAKO, Carpinteria, Calif., USA), diluted in blocking buffer. Either preincubation of DSG 1 antibody with DSG 1-recombinant protein (gift of Dr. Masayuki Amagai, Keio University, Tokyo, Japan), or omission of the DSG 1 primary antibody eliminated specific staining.

[9] = test system: mouse skin; assay: Electron microscopy of lamellar bodies and extracellular lipid processing; format: in vivo
Description: as §1

[10] = test system: murine skin; assay: Stratum corneum pH after tape-stripping with buffers and NHE1 inhibitors; format: in vivo, mouse
Description: The acidification experiments were performed with 10 mM HEPES-buffer, adjusted to either pH 5.5 or pH 7.4 as follows: One flank of anesthetized mice was immersed on a mesh netting, as described previously (Lee, S. H., et al., J. Clin. Invest. 89:530-8 (1992)). […] After 3 hours immersion at 37° C., the mice were removed, and the remaining buffer was gently blotted off. After 15 minutes, barrier function was determined by measurement of transepidermal water loss(TEWL) with an electrolytic water analyzer (MEECO®, Warrington, Pa.). Surface pH was measured with a flat, glass surface electrode from Mettler-Toledo (Giessen, Germany), attached to a pH meter (Skin pH Meter PH 900, Courage& Khazaka, Cologne, Germany). Individually tested sites were covered with Hilltop Chambers (HtC, nominal volume 200 mL), which were reapplied following each indvidual measurement.
as §2

[11] = five hours post tape-strip, in pH 7.4 buffer, buffer alone 38%
[12] = two hours post tape-strip, in pH 7.4 buffer, buffer alone 21%
[13] = fatty acid co-applied with BPB, three days
[14] = fifth strip, fatty acid co-applied with BPB

T1 sequence (P19634 whole entry): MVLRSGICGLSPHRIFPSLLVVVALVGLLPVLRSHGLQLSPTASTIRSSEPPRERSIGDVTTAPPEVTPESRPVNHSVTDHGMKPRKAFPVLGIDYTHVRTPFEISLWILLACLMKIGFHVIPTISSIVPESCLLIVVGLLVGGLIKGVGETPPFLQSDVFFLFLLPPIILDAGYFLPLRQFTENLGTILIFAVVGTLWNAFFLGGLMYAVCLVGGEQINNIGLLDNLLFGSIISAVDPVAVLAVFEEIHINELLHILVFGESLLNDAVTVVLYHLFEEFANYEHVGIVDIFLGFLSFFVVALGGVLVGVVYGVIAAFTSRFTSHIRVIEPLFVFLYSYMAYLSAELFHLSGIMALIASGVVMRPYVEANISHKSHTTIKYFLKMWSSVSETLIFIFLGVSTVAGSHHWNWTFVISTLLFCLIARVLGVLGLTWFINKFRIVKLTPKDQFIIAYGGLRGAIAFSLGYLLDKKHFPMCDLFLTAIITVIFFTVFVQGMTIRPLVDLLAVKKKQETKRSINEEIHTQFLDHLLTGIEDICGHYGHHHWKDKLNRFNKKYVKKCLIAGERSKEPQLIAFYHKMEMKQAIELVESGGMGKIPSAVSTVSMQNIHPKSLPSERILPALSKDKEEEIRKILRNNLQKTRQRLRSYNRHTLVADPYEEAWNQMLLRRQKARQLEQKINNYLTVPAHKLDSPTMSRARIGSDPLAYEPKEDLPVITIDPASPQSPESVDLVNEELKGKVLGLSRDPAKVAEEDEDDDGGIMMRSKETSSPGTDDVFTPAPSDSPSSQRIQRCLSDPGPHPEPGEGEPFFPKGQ

Compound: N=C(N)NC(=O)c1nc(Cl)c(N)nc1N [amiloride, N-Amido-3,5-diamino-6-chloropyrazinecarboxamide]
effect after wash out period ([1]; FIG. 1 (D), recovery from acid load after wash out): non-permanent, non-toxic effect
barrier recovery after tape-stripping [2]: delayed barrier recovery
percent barrier recovery (TEWL rate less than initial induced rate) [2, 11]: about 25%
percent barrier recovery (TEWL rate less than initial induced rate) [2, 12]: about 12%

Compound: CCCCCCCCCCCCCCCC(=O)O [palmitic acid]
pH of the stratum corneum [3, 13]: 5.40+/−0.14
protein lost [4, 14]: about 40 μg protein/cm^2
protein lost ([4]; three strippings, fatty acid co-applied with MJ33): about 30 μg/cm^2
TEWL after tape strips [5, 14]: 55-60 g/m^2/h
TEWL after tape strips ([5]; three sequential tape-strippings, fatty acid co-applied with MJ33): 30-35 g/m^2/h

Compound: CCCCCCCCCCCCCCCCCC(=O)O [stearic acid]
pH of the stratum corneum [3, 13]: 5.73+/−0.09
protein lost [4, 14]: about 25 μg protein/cm^2
TEWL after tape strips [5, 14]: about 25 g/m^2/h

Compound: CCCCC/C=C\C/C=C\CCCCCCCC(=O)O [linoleic acid]
pH of the stratum corneum [3, 13]: 5.77+/−0.10

Compound: O=C(CBr)c1ccc(Br)cc1 [BPB, bromphenacyl bromide]
pH of the stratum corneum ([3]; BPB alone, comparison with LA co-application): 6.28+/−0.1
pH of the stratum corneum ([3]; BPB alone, comparison with PA co-application): 5.92+/−0.05
pH of the stratum corneum ([3]; BPB alone, comparison with SA co-application): 6.17+/−0.08
surface pH of BPB treated sites before buffer exposure ([3]; BPB three days, before buffer): ~5.95 pH
surface pH ([3]; BPB three days, then neutral buffer (pH 7.4) three hours): ~6.41 pH
pH of the skin ([3]; after one day, 4 mg/mL topical twice daily): ~6.0 pH
average pH of treated sites ([3]; day 3, 4 mg/mL topical twice daily): ~6.4 pH
protein removed ([4]; after five strips (Example 1)): 85-90 μg/cm^2
protein removed per D-Squame stripping ([4]; first strip, after three days of treatment): about 20 μg/cm^2
protein lost ([4]; five sequential tape-strippings, BPB alone (Example 5)): about 125 μg protein/cm^2
TEWL before buffer exposure ([6]; BPB three days, before neutral buffer): about 10 g/m^2/h
barrier function ([6]; BPB three days, then acidic buffer three hours): remained unchanged
TEWL ([6]; BPB three days, then neutral buffer three hours): about 18 g/m^2/h
TEWL ([6]; day three of treatment): ~11 g/m^2/h
TEWL ([6]; day two of treatment): ~6 g/m^2/h
toxicity of the doses employed [7]: non-toxic
density of desmosomes in the lower stratum corneum and at the stratum corneum-stratum granulosum interface [8]: dramatic reduction
density of DSG1 positive clusters ([8]; laser confocal microscopy, lower stratum corneum): decline dramatically
TEWL after tape strippings ([5]; BPB treated sites then acidic buffer, three sequential strippings): less than 30 g/m^2/h
TEWL after tape strippings ([5]; BPB treated sites then neutral buffer, three sequential strippings): more than 60 g/m^2/h
TEWL after tape strips ([5]; fifth strip, BPB alone (Example 5)): 80-100 g/m^2/ h
TEWL after tape stripping ([5]; fifth strip, after three days of treatment (Example 1)): ~90 g/m^2/h
TEWL after tape stripping ([5]; second strip, after three days of treatment): ~20 g/m^2/h

Compound: CCCCCCCCCCCCCCCCOCC(COCC(F)(F)F)OP(=O)(O)OC (centres unmarked) [MJ33, 1-Hexadecyl-3-triflouroethylglycero-sn-2-phosphomethanol]
stratum corneum surface pH ([3]; MJ33 4 mg/mL vs vehicle alone (5.60)): 5.87+/−0.06
protein lost ([4]; day 3, after three consecutive tape-strippings (Example 1)): over 50 μg protein/cm^2
protein lost ([4]; three sequential strippings, MJ33 alone (Example 5)): about 50 μg protein/cm^2
fold increase in TEWL rates ([6]; by day three, vs vehicle): 2-3 fold
TEWL rates ([6]; day three, repeated applications, vehicle 2.97): 5.19+/−.81
toxicity of the doses employed [7]: non-toxic
density of desmosomes in the lower stratum corneum and at the stratum corneum-stratum granulosum interface [8]: dramatic reduction
TEWL after tape strippings ([5]; day 3, after three consecutive tape strippings (Example 1)): ~75 g/m^2/hr
TEWL after tape strips ([5]; three sequential tape-strippings, MJ33 alone (Example 5)): ~75 g/m^2/h

intracellular pH ([1]; 1.5 μM for 16 hours, from pH 7.05): 6.90 pH
Compound: CS(=O)(=O)c1cc(C(=O)NC(=N)N)ccc1N1CCCCC1 [HOE694, 3-methylsulfonyl-4-piperidino-benzoylguanidinemethanesulfonate]
percent barrier recovery (TEWL rate less than initial induced rate) ([2]; 2 hours post tape-strip, in pH 5.5 buffer, buffer alone 28%): 25%
percent barrier recovery (TEWL rate less than initial induced rate) ([2]; 5 hours post tape-strip, in pH 5.5 buffer): 38%
percent barrier recovery (TEWL rate less than initial induced rate) ([2]; 24 hours post tape-strip, in pH 5.5 buffer): 75%
percent barrier recovery (TEWL rate less than initial induced rate) ([2]; 24 hours post tape-strip, in pH 7.4 buffer, buffer alone 75%): about 45%
barrier recovery after tape-stripping [2]: delayed barrier recovery
percent barrier recovery (TEWL rate less than initial induced rate) [2, 11]: 23%
percent barrier recovery (TEWL rate less than initial induced rate) [2, 12]: about 12%
lamellar body formation and extracellular processing of secreted lipids ([9]; in pH 5.5 buffer): appeared normal
extracellular processing of secreted lipids ([9]; in pH 7.4 buffer): defective
lamellar body formation and secretion ([9]; in pH 7.4 buffer): undisturbed
stratum corneum pH relative to initial post-tape-strip value ([10]; 2 hours post-tape-strip, pH 5.5 HEPES buffer): more than 0.1 pH units
stratum corneum pH relative to initial post-tape-strip value ([10]; 5 hours post-tape-strip, pH 5.5 HEPES buffer): more than 0.05 pH units
stratum corneum pH relative to initial post-tape-strip value ([10]; five hours post-tape-strip, pH 7.4 buffer): persisted and even increased
initial post-tape-strip pH value ([10]; in pH 5.5 buffer, vs pH 5.5 buffer alone): increased significantly
stratum corneum pH above that of skin exposed to pH 7.4 buffer alone ([10]; two hours post-tape-strip, in pH 7.4 buffer): ~0.05 pH units
stratum corneum pH increase over initial post-tape-strip value ([10]; two hours post-tape-strip, pH 7.4 buffer): > 0.1 pH units
